In ChEMBL document CHEMBL4800723, “Data for DCP probe BI-1942” (2021):

Experiments:
[1] = biological target: 5-hydroxytryptamine receptor 1E (Homo sapiens) (UniProt P28566); conditions: Compound concentration 10.0 uM
[2] = biological target: Sodium-dependent dopamine transporter (Homo sapiens) (UniProt Q01959); assay: DATRANS/HUM Eurofins SafetyScreen44 (BI); conditions: Compound concentration 10.0 uM
[3] = biological target: Disintegrin and metalloproteinase domain-containing protein 17 (Homo sapiens) (UniProt P78536); assay: TACE Eurofins SafetyScreen44 (BI); conditions: Compound concentration 10.0 uM
[4] = biological target: Androgen receptor (Homo sapiens) (UniProt P10275); assay: ANDROGEN/H Eurofins SafetyScreen44 (BI); conditions: Compound concentration 10.0 uM
[5] = biological target: Trypsin (Homo sapiens) (UniProt P07477+P07478+P35030); assay: TRYPSIN_CE Eurofins SafetyScreen44 (BI); format: protein assay; conditions: Compound concentration 10.0 uM
[6] = biological target: Muscarinic acetylcholine receptor M2 (Homo sapiens) (UniProt P08172); conditions: Compound concentration 10.0 uM
[7] = biological target: Muscarinic acetylcholine receptor M3 (Homo sapiens) (UniProt P20309); conditions: Compound concentration 10.0 uM
[8] = biological target: Caspase-2 (Homo sapiens) (UniProt P42575); assay: CASPASE-2(H) Eurofins SafetyScreen44 (BI); conditions: Compound concentration 10.0 uM
[9] = biological target: Sodium-dependent noradrenaline transporter (Homo sapiens) (UniProt P23975); conditions: Compound concentration 10.0 uM
[10] = biological target: 5-hydroxytryptamine receptor 1D (Homo sapiens, UniProt P28221); conditions: Compound concentration 10.0 uM
[11] = biological target: Prostaglandin G/H synthase 2 (Homo sapiens) (UniProt P35354); assay: COX-2 Eurofins SafetyScreen44 (BI); conditions: Compound concentration 10.0 uM
[12] = biological target: 5-hydroxytryptamine receptor 5A (Homo sapiens) (UniProt P47898); conditions: Compound concentration 10.0 uM
[13] = biological target: 3',5'-cyclic-AMP phosphodiesterase 4D (Homo sapiens) (UniProt Q08499); assay: PDE4D2 Eurofins SafetyScreen44 (BI); conditions: Compound concentration 10.0 uM
[14] = biological target: Caspase-7 (Homo sapiens) (UniProt P55210); assay: CASPASE-7(H) Eurofins SafetyScreen44 (BI); conditions: Compound concentration 10.0 uM
[15] = biological target: 5-hydroxytryptamine receptor 2A (Homo sapiens) (UniProt P28223); conditions: Compound concentration 10.0 uM
[16] = biological target: Muscarinic acetylcholine receptor M4 (Homo sapiens) (UniProt P08173); conditions: Compound concentration 10.0 uM
[17] = biological target: Beta-3 adrenergic receptor (Homo sapiens) (UniProt P13945); conditions: Compound concentration 10.0 uM
[18] = biological target: 5-hydroxytryptamine receptor 1B (Homo sapiens) (UniProt P28222); conditions: Compound concentration 10.0 uM
[19] = biological target: Alpha-1A adrenergic receptor (Homo sapiens) (UniProt P35348); conditions: Compound concentration 10.0 uM
[20] = biological target: Alpha-1D adrenergic receptor (Homo sapiens) (UniProt P25100); conditions: Compound concentration 10.0 uM
[21] = biological target: Mu-type opioid receptor (Homo sapiens) (UniProt P35372); conditions: Compound concentration 10.0 uM
[22] = biological target: Alpha-2C adrenergic receptor (Homo sapiens) (UniProt P18825); conditions: Compound concentration 10.0 uM
[23] = biological target: cGMP-inhibited 3',5'-cyclic phosphodiesterase 3A (Homo sapiens) (UniProt Q14432); assay: PDE3A Eurofins SafetyScreen44 (BI); conditions: Compound concentration 10.0 uM
[24] = biological target: Dipeptidyl peptidase 1 (Homo sapiens) (UniProt P53634); assay: CATHEPSIN_C_CE Eurofins SafetyScreen44 (BI); conditions: Compound concentration 10.0 uM
[25] = biological target: Caspase-6 (Homo sapiens) (UniProt P55212); assay: CASPASE-6_CE Eurofins SafetyScreen44 (BI); conditions: Compound concentration 10.0 uM
[26] = biological target: D(3) dopamine receptor (Homo sapiens) (UniProt P35462); conditions: Compound concentration 10.0 uM
[27] = biological target: Alpha-1A adrenergic receptor (Homo sapiens) (UniProt P35348); assay: ALPHA1AH_ANTAG Eurofins SafetyScreen44 (BI); conditions: filed as antagonist, Compound concentration 10.0 uM
[28] = biological target: 5-hydroxytryptamine receptor 6 (Homo sapiens) (UniProt P50406); conditions: Compound concentration 10.0 uM
[29] = biological target: 5-hydroxytryptamine receptor 3A (Homo sapiens) (UniProt P46098); conditions: Compound concentration 10.0 uM
[30] = biological target: Prothrombin (Homo sapiens) (UniProt P00734); assay: THROMBIN Eurofins SafetyScreen44 (BI); conditions: Compound concentration 10.0 uM
[31] = biological target: Mu-type opioid receptor (Homo sapiens) (UniProt P35372); assay: MU/H Eurofins SafetyScreen44 (BI); conditions: Compound concentration 10.0 uM
[32] = biological target: Beta-2 adrenergic receptor (Homo sapiens) (UniProt P07550); conditions: Compound concentration 10.0 uM
[33] = biological target: Endothelin-converting enzyme 1 (Homo sapiens) (UniProt P42892); assay: ECE(H) Eurofins SafetyScreen44 (BI); conditions: Compound concentration 10.0 uM
[34] = biological target: Delta-type opioid receptor (Homo sapiens) (UniProt P41143); conditions: Compound concentration 10.0 uM
[35] = biological target: Dipeptidyl peptidase 4 (Homo sapiens) (UniProt P27487); assay: DIPEPTIDYLPEPTIDASE Eurofins SafetyScreen44 (BI); conditions: Compound concentration 10.0 uM
[36] = biological target: Procathepsin L (Homo sapiens) (UniProt P07711); assay: CATHEPSIN-L Eurofins SafetyScreen44 (BI); conditions: Compound concentration 10.0 uM
[37] = biological target: 5-hydroxytryptamine receptor 7 (Homo sapiens) (UniProt P34969); conditions: Compound concentration 10.0 uM
[38] = biological target: Cathepsin G (Homo sapiens) (UniProt P08311); assay: CATHEPSG(H) Eurofins SafetyScreen44 (BI); conditions: Compound concentration 10.0 uM
[39] = biological target: Cathepsin Z (Homo sapiens) (UniProt Q9UBR2); assay: CATHEPSINX(H) Eurofins SafetyScreen44 (BI); conditions: Compound concentration 10.0 uM
[40] = biological target: Beta-2 adrenergic receptor (Homo sapiens) (UniProt P07550); assay: BETA2/HUM Eurofins SafetyScreen44 (BI); conditions: filed as antagonist, Compound concentration 10.0 uM
[41] = biological target: Tryptase (Homo sapiens) (UniProt Q9BZJ3+Q15661+Q9NRR2); assay: TRYPTASE_H Eurofins SafetyScreen44 (BI); format: protein assay; conditions: Compound concentration 10.0 uM

Sequence of Alpha-1A adrenergic receptor (Homo sapiens) (P35348 whole entry): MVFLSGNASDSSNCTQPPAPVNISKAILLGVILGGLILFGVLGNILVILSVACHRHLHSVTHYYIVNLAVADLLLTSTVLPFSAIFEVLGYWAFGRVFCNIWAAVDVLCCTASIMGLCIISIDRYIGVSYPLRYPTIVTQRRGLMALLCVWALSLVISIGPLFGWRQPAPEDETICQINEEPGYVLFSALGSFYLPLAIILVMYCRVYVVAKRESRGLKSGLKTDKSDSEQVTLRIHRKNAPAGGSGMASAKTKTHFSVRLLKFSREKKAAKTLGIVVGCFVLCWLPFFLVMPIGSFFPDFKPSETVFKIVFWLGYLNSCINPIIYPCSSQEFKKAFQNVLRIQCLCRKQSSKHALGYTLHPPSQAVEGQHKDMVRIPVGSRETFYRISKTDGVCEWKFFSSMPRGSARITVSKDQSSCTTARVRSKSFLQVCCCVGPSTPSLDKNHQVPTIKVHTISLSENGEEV
Sequence of Beta-2 adrenergic receptor (Homo sapiens) (P07550 whole entry, looked up): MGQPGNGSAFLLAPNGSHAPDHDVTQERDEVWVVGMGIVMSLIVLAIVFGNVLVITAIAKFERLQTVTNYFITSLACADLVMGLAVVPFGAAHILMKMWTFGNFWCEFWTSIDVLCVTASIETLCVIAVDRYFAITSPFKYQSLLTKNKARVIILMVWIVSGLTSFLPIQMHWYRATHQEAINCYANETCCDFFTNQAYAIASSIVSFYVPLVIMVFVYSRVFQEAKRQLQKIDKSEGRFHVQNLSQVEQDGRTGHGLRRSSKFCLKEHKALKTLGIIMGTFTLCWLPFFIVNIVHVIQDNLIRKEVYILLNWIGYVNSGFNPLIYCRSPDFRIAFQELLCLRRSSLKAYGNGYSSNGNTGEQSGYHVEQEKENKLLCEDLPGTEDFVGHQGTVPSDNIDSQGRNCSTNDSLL
Sequence of Mu-type opioid receptor (Homo sapiens) (P35372 whole entry): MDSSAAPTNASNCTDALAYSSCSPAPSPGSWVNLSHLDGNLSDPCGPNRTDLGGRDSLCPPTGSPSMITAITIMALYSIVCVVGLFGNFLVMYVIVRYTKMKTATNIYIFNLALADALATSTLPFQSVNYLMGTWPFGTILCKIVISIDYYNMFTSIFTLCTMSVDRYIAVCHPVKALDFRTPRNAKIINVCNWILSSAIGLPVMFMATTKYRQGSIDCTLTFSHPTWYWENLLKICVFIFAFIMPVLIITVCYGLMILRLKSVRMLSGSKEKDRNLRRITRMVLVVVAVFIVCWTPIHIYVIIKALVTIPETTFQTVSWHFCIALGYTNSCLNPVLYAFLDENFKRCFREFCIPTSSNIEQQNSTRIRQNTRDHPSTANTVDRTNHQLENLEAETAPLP
Sequence of D(3) dopamine receptor (Homo sapiens) (P35462 whole entry): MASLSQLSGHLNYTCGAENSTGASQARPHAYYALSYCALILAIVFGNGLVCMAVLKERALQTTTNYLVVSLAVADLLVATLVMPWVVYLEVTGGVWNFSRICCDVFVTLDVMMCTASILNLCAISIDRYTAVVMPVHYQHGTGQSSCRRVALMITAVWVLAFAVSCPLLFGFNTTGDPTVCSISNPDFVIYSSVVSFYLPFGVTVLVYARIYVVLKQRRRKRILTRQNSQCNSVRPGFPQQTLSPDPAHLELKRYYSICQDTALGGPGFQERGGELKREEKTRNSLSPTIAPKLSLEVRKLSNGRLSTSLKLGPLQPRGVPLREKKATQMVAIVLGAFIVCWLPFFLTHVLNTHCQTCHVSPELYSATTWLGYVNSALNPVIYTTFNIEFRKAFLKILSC
Sequence of 5-hydroxytryptamine receptor 6 (Homo sapiens) (P50406 whole entry): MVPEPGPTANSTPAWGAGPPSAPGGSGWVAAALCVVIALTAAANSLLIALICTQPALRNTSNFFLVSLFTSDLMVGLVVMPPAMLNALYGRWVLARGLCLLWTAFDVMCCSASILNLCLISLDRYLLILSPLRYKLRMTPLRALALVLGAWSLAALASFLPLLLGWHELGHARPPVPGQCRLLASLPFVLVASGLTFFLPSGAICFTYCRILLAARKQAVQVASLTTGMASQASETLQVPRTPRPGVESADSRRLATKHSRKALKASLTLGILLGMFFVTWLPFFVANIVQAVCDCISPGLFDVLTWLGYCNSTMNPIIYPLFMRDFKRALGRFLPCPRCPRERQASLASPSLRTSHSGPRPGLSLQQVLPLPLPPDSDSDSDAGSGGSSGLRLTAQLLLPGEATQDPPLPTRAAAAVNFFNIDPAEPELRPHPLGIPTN
Sequence of Beta-3 adrenergic receptor (Homo sapiens) (P13945 whole entry, looked up): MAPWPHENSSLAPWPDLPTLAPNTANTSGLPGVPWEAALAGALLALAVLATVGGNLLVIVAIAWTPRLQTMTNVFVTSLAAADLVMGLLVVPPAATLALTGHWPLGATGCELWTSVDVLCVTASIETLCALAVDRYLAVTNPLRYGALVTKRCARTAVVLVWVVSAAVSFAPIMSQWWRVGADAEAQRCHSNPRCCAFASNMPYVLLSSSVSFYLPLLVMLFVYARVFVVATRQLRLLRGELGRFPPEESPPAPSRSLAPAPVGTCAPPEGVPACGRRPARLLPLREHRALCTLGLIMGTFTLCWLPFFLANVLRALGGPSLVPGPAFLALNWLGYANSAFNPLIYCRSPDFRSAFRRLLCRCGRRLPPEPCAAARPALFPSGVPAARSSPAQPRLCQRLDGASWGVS
Sequence of Alpha-2C adrenergic receptor (Homo sapiens) (P18825 whole entry): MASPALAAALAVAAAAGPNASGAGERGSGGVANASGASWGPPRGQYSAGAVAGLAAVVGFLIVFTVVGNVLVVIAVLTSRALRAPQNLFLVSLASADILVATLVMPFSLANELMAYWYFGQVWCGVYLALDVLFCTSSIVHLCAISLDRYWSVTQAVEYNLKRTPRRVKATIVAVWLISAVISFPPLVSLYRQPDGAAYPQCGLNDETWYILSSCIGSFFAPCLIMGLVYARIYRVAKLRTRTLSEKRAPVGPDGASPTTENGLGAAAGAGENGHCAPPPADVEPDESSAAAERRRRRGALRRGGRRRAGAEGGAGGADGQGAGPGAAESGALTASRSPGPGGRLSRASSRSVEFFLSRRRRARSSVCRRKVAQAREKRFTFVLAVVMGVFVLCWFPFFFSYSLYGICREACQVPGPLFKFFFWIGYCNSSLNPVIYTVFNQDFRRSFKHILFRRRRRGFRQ
Sequence of Endothelin-converting enzyme 1 (Homo sapiens) (P42892 whole entry): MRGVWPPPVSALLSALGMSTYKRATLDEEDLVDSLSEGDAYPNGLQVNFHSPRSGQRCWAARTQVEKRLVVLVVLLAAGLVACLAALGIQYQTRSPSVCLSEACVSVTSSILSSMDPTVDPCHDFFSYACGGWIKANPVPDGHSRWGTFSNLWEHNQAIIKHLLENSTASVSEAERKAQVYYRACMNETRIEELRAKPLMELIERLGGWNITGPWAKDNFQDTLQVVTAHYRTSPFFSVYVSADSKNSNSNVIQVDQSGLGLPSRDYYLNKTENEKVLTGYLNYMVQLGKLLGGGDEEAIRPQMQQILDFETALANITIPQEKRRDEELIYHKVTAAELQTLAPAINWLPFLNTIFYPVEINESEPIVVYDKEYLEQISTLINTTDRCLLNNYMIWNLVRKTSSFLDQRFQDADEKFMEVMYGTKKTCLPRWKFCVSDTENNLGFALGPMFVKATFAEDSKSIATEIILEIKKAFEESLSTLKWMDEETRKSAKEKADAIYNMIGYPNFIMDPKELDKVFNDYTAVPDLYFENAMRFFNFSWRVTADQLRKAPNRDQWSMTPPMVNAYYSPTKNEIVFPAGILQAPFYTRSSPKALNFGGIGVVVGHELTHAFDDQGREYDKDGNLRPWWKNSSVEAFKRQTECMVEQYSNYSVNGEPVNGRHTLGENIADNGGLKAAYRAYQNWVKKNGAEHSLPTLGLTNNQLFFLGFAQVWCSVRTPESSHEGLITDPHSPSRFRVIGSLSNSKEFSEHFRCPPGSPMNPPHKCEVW
Sequence of 5-hydroxytryptamine receptor 7 (Homo sapiens) (P34969 whole entry): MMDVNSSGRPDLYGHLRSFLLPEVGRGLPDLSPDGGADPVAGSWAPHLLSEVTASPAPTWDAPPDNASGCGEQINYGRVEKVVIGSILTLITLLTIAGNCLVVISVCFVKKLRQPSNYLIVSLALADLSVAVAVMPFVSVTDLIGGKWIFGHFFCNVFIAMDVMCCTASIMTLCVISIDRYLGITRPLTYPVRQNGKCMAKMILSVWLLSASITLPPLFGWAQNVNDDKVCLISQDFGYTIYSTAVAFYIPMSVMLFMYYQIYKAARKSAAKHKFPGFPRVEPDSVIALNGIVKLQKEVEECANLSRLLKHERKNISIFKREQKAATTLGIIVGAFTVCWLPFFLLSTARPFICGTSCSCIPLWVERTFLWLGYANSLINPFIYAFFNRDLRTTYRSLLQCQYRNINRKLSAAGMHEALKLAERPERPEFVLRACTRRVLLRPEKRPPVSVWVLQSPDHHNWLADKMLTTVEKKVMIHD
Sequence of Delta-type opioid receptor (Homo sapiens) (P41143 whole entry): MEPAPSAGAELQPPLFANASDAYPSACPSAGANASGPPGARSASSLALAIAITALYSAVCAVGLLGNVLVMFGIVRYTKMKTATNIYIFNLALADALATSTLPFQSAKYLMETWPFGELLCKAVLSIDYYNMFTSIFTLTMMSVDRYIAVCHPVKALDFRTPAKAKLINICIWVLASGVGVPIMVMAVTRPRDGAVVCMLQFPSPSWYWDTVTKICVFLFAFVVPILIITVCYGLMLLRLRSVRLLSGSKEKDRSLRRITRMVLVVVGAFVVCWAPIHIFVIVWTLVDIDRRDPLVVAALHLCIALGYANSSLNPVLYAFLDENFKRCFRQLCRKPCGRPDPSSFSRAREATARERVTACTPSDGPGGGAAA
Sequence of Cathepsin G (Homo sapiens) (P08311 whole entry): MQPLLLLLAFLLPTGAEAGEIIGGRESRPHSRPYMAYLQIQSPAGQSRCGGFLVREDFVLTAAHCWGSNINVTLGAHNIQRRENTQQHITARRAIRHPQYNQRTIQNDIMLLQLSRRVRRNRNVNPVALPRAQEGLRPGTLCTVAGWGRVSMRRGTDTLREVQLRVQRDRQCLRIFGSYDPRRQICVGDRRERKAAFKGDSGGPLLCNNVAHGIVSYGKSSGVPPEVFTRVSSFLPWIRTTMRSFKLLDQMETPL

## CC[C@H](CC(=O)O)n1c(=O)c2ncccc2n(Cc2cn(C)c3cc(C)cc(C)c23)c1=O [BI-1942]
[1]
  inhibition: -9.73%
[2]
  residual activity: 101%
[3]
  residual activity: 88%
[4]
  residual activity: 115%
[5]
  residual activity: 108%
[6]
  inhibition: 12%
[7]
  inhibition: 23.8%
[8]
  residual activity: 156%
[9]
  inhibition: 31.5%
[10]
  inhibition: 52.9%
[11]
  residual activity: 101%
[12]
  inhibition: 5.71%
[13]
  residual activity: 106%
[14]
  residual activity: 101%
[15]
  inhibition: 0.22%
[16]
  inhibition: 9.09%
[17]
  inhibition: -6.54%
[18]
  inhibition: 5.01%
[19]
  inhibition: 0.23%
[20]
  inhibition: 12.1%
[21]
  inhibition: 2.82%
[22]
  inhibition: 13.8%
[23]
  residual activity: 94%
[24]
  residual activity: 92%
[25]
  residual activity: 99%
[26]
  inhibition: 11.1%
[27]
  residual activity: 103%
[28]
  inhibition: 12.2%
[29]
  inhibition: 0.31%
[30]
  residual activity: 102%
[31]
  residual activity: 96%
[32]
  inhibition: 10.5%
[33]
  residual activity: 82%
[34]
  inhibition: 9.83%
[35]
  residual activity: 107%
[36]
  residual activity: 99%
[37]
  inhibition: 27.2%
[38]
  residual activity: -2%
[39]
  residual activity: 98%
[40]
  residual activity: 93%
[41]
  residual activity: 102%
